Counter-ions that a name gives are not always drawn. Like-named read-outs stand apart in the source and are kept apart here.
Tests used:
MAO-B = MAO-B (Homo sapiens (Human), UniProt P27338); conditions: read-out: MAO-B (Ki)
MAO-A [1] = target: T1, MAO-A (Homo sapiens (Human), UniProt P21397); conditions: read-out: MAO-A (Ki)
[2] = target: T2, Human recombinant LSD1 protein (Homo sapiens (Human), UniProt O60341); conditions: for Ki: read-out: LSD1 (Ki)
[3] = target: T2, Human recombinant LSD1 protein; test: biochemical
MAO-A [4] = target: T1, MAO-A; test: biochemical

Chain of MAO-B (P27338 whole entry): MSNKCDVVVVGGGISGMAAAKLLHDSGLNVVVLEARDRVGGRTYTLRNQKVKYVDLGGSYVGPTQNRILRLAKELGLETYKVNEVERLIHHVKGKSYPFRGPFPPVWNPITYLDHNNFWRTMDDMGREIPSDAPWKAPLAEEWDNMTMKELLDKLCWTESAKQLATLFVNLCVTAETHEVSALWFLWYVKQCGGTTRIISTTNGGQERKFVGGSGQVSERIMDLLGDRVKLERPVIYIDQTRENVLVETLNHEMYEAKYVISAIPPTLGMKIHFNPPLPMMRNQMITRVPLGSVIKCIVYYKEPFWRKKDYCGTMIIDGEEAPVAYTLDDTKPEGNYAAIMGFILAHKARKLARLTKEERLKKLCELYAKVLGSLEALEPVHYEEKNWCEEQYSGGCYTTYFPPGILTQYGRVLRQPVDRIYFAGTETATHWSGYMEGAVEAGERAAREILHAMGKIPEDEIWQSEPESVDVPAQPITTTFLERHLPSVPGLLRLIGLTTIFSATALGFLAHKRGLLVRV
T1 sequence (P21397 whole entry): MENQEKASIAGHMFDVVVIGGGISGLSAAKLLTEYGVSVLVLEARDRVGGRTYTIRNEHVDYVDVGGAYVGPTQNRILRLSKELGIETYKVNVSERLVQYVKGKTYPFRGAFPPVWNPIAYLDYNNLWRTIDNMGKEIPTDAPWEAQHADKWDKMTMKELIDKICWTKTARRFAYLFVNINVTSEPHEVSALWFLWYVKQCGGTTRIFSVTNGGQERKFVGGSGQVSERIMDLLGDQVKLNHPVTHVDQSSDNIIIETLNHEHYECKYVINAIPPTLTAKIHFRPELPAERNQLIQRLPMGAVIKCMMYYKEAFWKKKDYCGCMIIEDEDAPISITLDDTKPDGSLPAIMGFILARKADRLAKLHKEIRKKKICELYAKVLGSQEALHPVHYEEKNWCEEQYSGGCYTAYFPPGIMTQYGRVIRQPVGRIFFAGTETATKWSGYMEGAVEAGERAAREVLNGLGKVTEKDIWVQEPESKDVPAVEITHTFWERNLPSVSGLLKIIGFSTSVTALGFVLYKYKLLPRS

Compound	Ki (MAO-B) [nM]	Ki (MAO-A [1]) [nM]	Ki [2] [nM]	Ki [3] [nM]	LSD1 (Ki) [2]	Ki (MAO-A [4]) [nM]
N[C@H]1C[C@@H]1c1ccc(-c2cccc(C(F)(F)F)c2)nc1Cl (relative stereo) [Example 76, (trans)-2-(2-chloro-6-(3-(trifluoromethyl)phenyl)pyridin-3-yl)cyclopropanamine hydrochloride]	1000 to 40000	1000 to 40000	–	100 to 1000	–	–
Cc1nc(-c2cccc(C(F)(F)F)c2)ccc1[C@H]1C[C@@H]1N (relative stereo) [Example 80, (trans)-2-(2-methyl-6-(3-(trifluoromethyl)phenyl)pyridin-3-yl)cyclopropanamine hydrochloride]	1000 to 40000	1000 to 40000	–	100 to 1000	–	–
N#Cc1ccc(O)c(-c2ccc([C@H]3C[C@@H]3N)cc2)c1 (relative stereo) [Example 87, 4′-((trans)-2-aminocyclopropyl)-6-hydroxybiphenyl-3-carbonitrile hydrochloride]	–	–	–	–	–	100 to 1000
N#Cc1ccc(O)c(-c2ccc([C@H]3C[C@@H]3N)cn2)c1 (relative stereo) [Example 89, 3-(5-((trans)-2-aminocyclopropyl)pyridin-2-yl)-4-hydroxybenzonitrile hydrochloride]	–	–	–	–	–	100 to 1000
CS(=O)(=O)Nc1cc(Cl)cc(-c2ccc([C@H]3C[C@@H]3N)cn2)c1 (relative stereo) [Example 95, N-(3-(5-((trans)-2-aminocyclopropyl)pyridin-2-yl)-5-chlorophenyl)methanesulfonamide hydrochloride]	–	–	–	–	–	100 to 1000
CS(=O)(=O)Nc1cc(-c2ccc([C@H]3C[C@@H]3N)cc2)ccc1F (relative stereo) [Example 96, N-(4′-((trans)-2-aminocyclopropyl)-4-fluoro-[1,1′-biphenyl]-3-yl)methanesulfonamide hydrochloride]	1000 to 40000	–	–	1 to 100	–	100 to 1000
CS(=O)(=O)Nc1cc(-c2ccc([C@H]3C[C@@H]3N)cn2)ccc1F (relative stereo) [Example 97, N-(5-(5-((trans)-2-aminocyclopropyl)pyridin-2-yl)-2-fluorophenyl)methanesulfonamide hydrochloride]	1000 to 40000	1000 to 40000	–	100 to 1000	–	–
CCS(=O)(=O)Nc1cccc(-c2ccc([C@H]3C[C@@H]3N)cn2)c1 (relative stereo) [Example 98, N-(3-(5-((trans)-2-aminocyclopropyl)pyridin-2-yl)phenyl)ethanesulfonamide hydrochloride]	1000 to 40000	1000 to 40000	–	1 to 100	–	–
N#Cc1cccc(S(=O)(=O)Nc2cccc(-c3ccc([C@H]4C[C@@H]4N)cn3)c2)c1 (relative stereo) [Example 100, N-(3-(5-((trans)-2-aminocyclopropyl)pyridin-2-yl)phenyl)-3-cyanobenzenesulfonamide hydrochloride]	–	–	–	–	–	100 to 1000
COc1cc(-c2cccc(O)c2)ccc1[C@H]1C[C@@H]1N (relative stereo) [Example 106, 4′-((trans)-2-aminocyclopropyl)-3′-methoxy-[1,1′-biphenyl]-3-ol hydrochloride]	1000 to 40000	–	–	100 to 1000	–	100 to 1000
N[C@H]1C[C@@H]1c1cnc(-c2cccc(O)c2)s1 (relative stereo) [Example 116, 3-(5-((trans)-2-aminocyclopropyl)thiazol-2-yl)phenol hydrochloride]	1000 to 40000	–	–	1 to 100	–	1 to 100
N#Cc1ccccc1S(=O)(=O)Nc1cccc(-c2ncc([C@H]3C[C@@H]3N)s2)c1 (relative stereo) [Example 124, N-(3-(5-((trans)-2-aminocyclopropyl)thiazol-2-yl)phenyl)-2-cyanobenzenesulfonamide dihydrochloride]	1000 to 40000	1000 to 40000	–	1 to 100	–	–
CNS(=O)(=O)c1cccc(-c2ccc([C@H]3C[C@@H]3N)cn2)c1 [Example 104, hydrochloride]	1000 to 40000	–	–	–	–	100 to 1000

Results, then the molecule that gave them:

Ki (MAO-B) [nM]	Ki (MAO-A [1]) [nM]	Ki [2] [nM]	Ki [3] [nM]	LSD1 (Ki) [2]	Ki (MAO-A [4]) [nM]	Compound
1000 to 40000	1000 to 40000	1000 to 40000	–	–	–	NC(=O)c1ccc(-c2ccc([C@H]3C[C@@H]3N)cn2)cc1 (relative stereo) [Example 18, 4-(5-((trans)-2-aminocyclopropyl)pyridin-2-yl)benzamide hydrochloride]
1000 to 40000	1000 to 40000	1000 to 40000	–	–	–	Cc1cc([C@H]2C[C@@H]2N)cnc1-c1cccc(Cl)c1 (relative stereo) [Example 36, (trans)-2-(6-(3-chlorophenyl)-5-methylpyridin-3-yl)cyclopropanamine]
1000 to 40000	1000 to 40000	1000 to 40000	–	–	–	Cc1cc([C@H]2C[C@@H]2N)cnc1-c1cccc(C(F)(F)F)c1 (relative stereo) [Example 37, (trans)-2-(5-methyl-6-(3-(trifluoromethyl)phenyl)pyridin-3-yl)cyclopropanamine hydrochloride]
1000 to 40000	1000 to 40000	–	1 to 100	–	–	N#Cc1ccc(-c2ccc([C@H]3C[C@@H]3N)cn2)s1 (relative stereo) [Example 56, 5-(5-((trans)-2-aminocyclopropyl)pyridin-2-yl)thiophene-2-carbonitrile hydrochloride]
1000 to 40000	1000 to 40000	–	100 to 1000	–	–	Cc1cscc1-c1ccc([C@H]2C[C@@H]2N)cn1 (relative stereo) [Example 57, (trans)-2-(6-(4-methylthiophen-3-yl)pyridin-3-yl)cyclopropanamine hydrochloride]
1000 to 40000	1000 to 40000	–	100 to 1000	–	–	COc1cc(-c2ccc([C@H]3C[C@@H]3N)cn2)cc(F)c1F (relative stereo) [Example 58, (Trans)-2-(6-(3,4-difluoro-5-methoxyphenyl)pyridin-3-yl)cyclopropanamine hydrochloride]
1000 to 40000	1000 to 40000	–	–	II-III	–	Cl.N[C@H]1C[C@@H]1c1ccc(-c2ccc3cn[nH]c3c2)nc1 (relative stereo) [Example 60, (Trans)-2-(6-(1H-indazol-6-yl)pyridin-3-yl)cyclopropanamine hydrochloride]
1000 to 40000	1000 to 40000	–	100 to 1000	–	–	N[C@H]1C[C@@H]1c1ccc(-c2ccc3c(c2)NC(=O)C3)nc1 (relative stereo) [Example 62, 6-(5-((trans)-2-aminocyclopropyl)pyridin-2-yl)indolin-2-one hydrochloride]
1000 to 40000	1000 to 40000	–	1 to 100	–	–	CC(C)S(=O)(=O)Nc1cccc(-c2ccc([C@H]3C[C@@H]3N)cn2)c1 (relative stereo) [Example 65, N-(3-(5-((trans)-2-aminocyclopropyl)pyridin-2-yl)phenyl)propane-2-sulfonamide hydrochloride]
1000 to 40000	1000 to 40000	–	100 to 1000	–	–	CS(=O)(=O)Nc1ccccc1-c1ccc([C@H]2C[C@@H]2N)cn1 (relative stereo) [Example 71, N-(2-(5-((trans)-2-aminocyclopropyl)pyridin-2-yl)phenyl)methanesulfonamide hydrochloride]
1000 to 40000	1000 to 40000	–	100 to 1000	–	–	COc1ccc(C#N)cc1-c1ccc([C@H]2C[C@@H]2N)cn1 (relative stereo) [Example 72, 3-(5-((trans)-2-aminocyclopropyl)pyridin-2-yl)-4-methoxybenzonitrile hydrochloride]

Reference: patent US9676701B2, “Cyclopropylamine derivatives useful as LSD1 inhibitors” (Oryzon Genomics, S.A., priority 2010, dated 2017)
